Test results taken from patent publication US6245736A, “Use of peptidic bradykinin antagonists for the treatment and prevention of Alzheimer's disease” (Aventis Pharma Deutschland GmbH, priority 1996, dated 2001).
Where no end group is shown, it is not given here.

What was measured:
Type in all cases: cell-based
[1] = system: human umbilical vein endothelial cells; experiment: cGMP production stimulated by the Alzheimer protein β/A4 in endothelial cell cultures (HUVECs), radioimmunoassay
From the text: (§1) Action of the compounds of the formula (I) on cGMP production stimulated by the Alzheimer protein β/A4 in endothelial cell cultures
(§2) Bovine aortic endothelial cell cultures (BAECs=bovine aortic endothelial cells), […] coronary rat endothelial cell cultures (RMCECs=rat microvascular coronary endothelial cells) and human umbilical vein endothelial cell cultures (HUVECs=human umbilical vein endothelial cells)
(§3) Determination of the effect of bradykinin antagonists of the formula (I) on the production of cGMP stimulated by administration of 0.1 and 1 μmol/l of the Alzheimer protein β/A4 in endothelial cell cultures of various species and organs.
(§4) In endothelial cells, bradykinin leads to an increase in the production of cGMP, which is determined by means of a radioimmunoassay. Increase in the formation of cGMP by bradykinin is an indicator of a release of NO (nitrogen monoxide) from endothelial cells.
(§5) Stimulation of cGMP production by βA(1-40) and inhibitory effect of the bradykinin antagonist HOE 140 (10^-7 mol/l) in 3 different types of endothelial cells: […]

[2] = system: rat microvascular coronary endothelial cells; experiment: cGMP production stimulated by the Alzheimer protein β/A4 in endothelial cell cultures (RMCECs), radioimmunoassay
From the text: as §1, §2, §3, §4, §5

[3] = system: bovine aortic endothelial cells; experiment: cGMP production stimulated by the Alzheimer protein β/A4 in endothelial cell cultures (BAECs), radioimmunoassay
From the text: as §1, §2, §3, §4, §5

[4] = simultaneous incubation with HOE 140 0.1 μmol/l
[5] = stimulated with BK 10^-8 mol/l + HOE 140 (10^-7 mol/l)
[6] = stimulated with βA (1-40) 10^-6 mol/l + HOE 140 (10^-7 mol/l)
[7] = stimulated with βA (1-40) 10^-7 mol/l + HOE 140 (10^-7 mol/l)

RPPGFSPFR [BK, bradykinin]
cGMP production ([1]; BK 10^-8 mol/l alone): 11.46 ± 2 pmol/mg of protein | cGMP production ([2]; BK 10^-8 mol/l alone): 1.13 ± 0.2 pmol/mg of protein | cGMP production ([3]; BK 10^-8 mol/l alone): 8.8 ± 0.34 pmol/mg of protein

N=C(N)NCCC[C@@H](N)C(=O)N[C@@H](CCCNC(=N)N)C(=O)N1CCC[C@H]1C(=O)N1C[C@H](O)C[C@H]1C(=O)NCC(=O)N[C@@H](Cc1cccs1)C(=O)N[C@@H](CO)C(=O)N1Cc2ccccc2C[C@@H]1C(=O)N1[C@H](C(=O)N[C@@H](CCCNC(=N)N)C(=O)O)C[C@@H]2CCCC[C@@H]21 [HOE 140, H-D-Arg-Arg-Pro-Hyp-Gly-Thi-Ser-D-Tic-Oic-Arg-OH]
effect on the stimulation of the production of cGMP induced by the β/A4 protein [1, 4]: prevents the stimulation of the production of cGMP | cGMP production [1, 5]: 3.45 ± 0.45 pmol/mg of protein | cGMP production [1, 6]: 5.3 pmol/mg of protein | cGMP production [1, 7]: 4.0 pmol/mg of protein | effect on the stimulation of the production of cGMP induced by the β/A4 protein [2, 4]: prevents the stimulation of the production of cGMP | cGMP production [2, 5]: 0.22 ± 0.02 pmol/mg of protein | cGMP production [2, 6]: 0.32 ± 0.05 pmol/mg of protein | cGMP production [2, 7]: 0.34 ± 0.02 pmol/mg of protein | effect on the stimulation of the production of cGMP induced by the β/A4 protein [3, 4]: prevents the stimulation of the production of cGMP | cGMP production [3, 5]: 2.2 ± 0.2 pmol/mg of protein | cGMP production [3, 6]: 2.2 ± 0.2 pmol/mg of protein | cGMP production [3, 7]: 2.2 ± 0.28 pmol/mg of protein

βA (1-40): Alzheimer protein amyloid (β/A4), used to stimulate cGMP production [reference compound]
cGMP production ([1]; βA (1-40) 10^-6 mol/l alone): 15.3 ± 1.9 pmol/mg of protein | cGMP production ([1]; βA (1-40) 10^-7 mol/l alone): 14.07 ± 1.6 pmol/mg of protein | cGMP production ([2]; βA (1-40) 10^-6 mol/l alone): 0.74 ± 0.09 pmol/mg of protein | cGMP production ([2]; βA (1-40) 10^-7 mol/l alone): 0.59 ± 0.07 pmol/mg of protein | cGMP production ([3]; βA (1-40) 10^-6 mol/l alone): 4.6 ± 0.13 pmol/mg of protein | cGMP production ([3]; βA (1-40) 10^-7 mol/l alone): 5.9 ± 0.23 pmol/mg of protein
